According to ChEMBL document CHEMBL1201862, “PubChem BioAssay data set” (2004):
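Cells were grown in 96-well plates and exposed to each compound for 48 hours at five concentrations; endpoints were interpolated linearly between bracketing concentrations, or set to the highest concentration if not reached. The concentration for 50% growth inhibition is given as GI50.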 Calls of active or inactive are those of the source. Rule as the data show it: active = GI50 up to about 1.1 µM and inactive = higher.

Legend:
Assay in all cases: inhibition of tumour cell growth, NCI panel, 48 h
[1] = tested on: UACC-62
[2] = tested on: M14
[3] = tested on: SNB-75
[4] = tested on: IGROV-1
[5] = tested on: CAKI-1
[6] = tested on: SN12C
[7] = tested on: UACC-257
[8] = tested on: RXF 393
[9] = tested on: HCC 2998
[10] = tested on: SK-OV-3
[11] = tested on: SF-539
[12] = tested on: HOP-62
[13] = tested on: EKVX
[14] = tested on: A549
[15] = tested on: NCI-H23
[16] = tested on: UO-31

Compound	GI50 [1]	GI50 [2]	GI50 [3]	GI50 [4]	GI50 [5]	GI50 [6]	GI50 [7]	GI50 [8]	GI50 [9]	GI50 [10]	GI50 [11]	GI50 [12]	GI50 [13]	GI50 [14]	GI50 [15]	GI50 [16]
COC(=O)C1=C(C(=O)OC)C2(CCCCCC2=O)OC1=O (configuration not stated)	> 100 µM (inactive)	> 100 µM (inactive)	> 100 µM (inactive)	> 100 µM (inactive)	> 100 µM (inactive)	> 100 µM (inactive)	> 100 µM (inactive)	> 100 µM (inactive)	> 100 µM (inactive)	> 100 µM (inactive)	> 100 µM (inactive)	> 100 µM (inactive)	> 100 µM (inactive)	> 100 µM (inactive)	> 100 µM (inactive)	–
Cc1cc(C)nc(NS(=O)(=O)c2ccc(Nc3c4ccccc4nc4c(C(=O)Nc5ccc(S(=O)(=O)Nc6cc(C)on6)cc5)ccc(Cl)c34)cc2)n1	26.4 µM (inactive)	20.1 µM (inactive)	31.7 µM (inactive)	–	–	21.3 µM (inactive)	28.9 µM (inactive)	14.8 µM (inactive)	17.3 µM (inactive)	69.7 µM (inactive)	21.5 µM (inactive)	21.5 µM (inactive)	25.5 µM (inactive)	–	20.3 µM (inactive)	20.8 µM (inactive)
O=C1c2ccccc2C(=O)C1C(c1ccc(F)cc1)C1C(=O)c2ccccc2C1=O	> 100 µM (inactive)	> 100 µM (inactive)	55 µM (inactive)	–	> 100 µM (inactive)	> 100 µM (inactive)	> 100 µM (inactive)	24.8 µM (inactive)	> 100 µM (inactive)	> 100 µM (inactive)	> 100 µM (inactive)	> 100 µM (inactive)	> 100 µM (inactive)	> 100 µM (inactive)	> 100 µM (inactive)	> 100 µM (inactive)
N#CC1(CCCCl)CCCCC1	> 100 µM (inactive)	> 100 µM (inactive)	32.4 µM (inactive)	> 100 µM (inactive)	–	> 100 µM (inactive)	> 100 µM (inactive)	> 100 µM (inactive)	> 100 µM (inactive)	> 100 µM (inactive)	> 100 µM (inactive)	–	> 100 µM (inactive)	> 100 µM (inactive)	> 100 µM (inactive)	> 100 µM (inactive)
O=C(O)CCNCCCCNCCC(=O)O	> 100 µM (inactive)	> 100 µM (inactive)	> 100 µM (inactive)	> 100 µM (inactive)	> 100 µM (inactive)	> 100 µM (inactive)	–	> 100 µM (inactive)	> 100 µM (inactive)	> 100 µM (inactive)	> 100 µM (inactive)	> 100 µM (inactive)	> 100 µM (inactive)	> 100 µM (inactive)	> 100 µM (inactive)	–
CC(=O)OCC1OC(OC2CC3C(C)(C)C(O)CC[C@]3(C)C3CCC45CC4(CC[C@H]5C(C)CC(O)C4OC4(C)C)[C@]23C)C(O)C(O)C1O (some centres not stated)	7.45 µM (inactive)	8.04 µM (inactive)	7.46 µM (inactive)	0.966 µM (active)	8.87 µM (inactive)	8.24 µM (inactive)	9.04 µM (inactive)	4.2 µM (inactive)	7.06 µM (inactive)	8.2 µM (inactive)	7.98 µM (inactive)	11.1 µM (inactive)	8.61 µM (inactive)	10.6 µM (inactive)	8.75 µM (inactive)	8.51 µM (inactive)
CC(=O)OC1CC2C(C)(C)C(=O)C=C[C@]2(C)C2CCC3(C)C(=CCC3[C@H](CO)C[C@H](O)C(=O)C(C)(C)O)[C@]12C (some centres not stated)	14.2 µM (inactive)	21.7 µM (inactive)	24.3 µM (inactive)	21.5 µM (inactive)	15.9 µM (inactive)	26.4 µM (inactive)	14.5 µM (inactive)	16.5 µM (inactive)	18.1 µM (inactive)	13.7 µM (inactive)	18.7 µM (inactive)	–	20.3 µM (inactive)	24.2 µM (inactive)	> 10 µM (inactive)	23.7 µM (inactive)
Clc1ccc(C2SCc3nc4ccccc4n32)c(Cl)c1 (configuration not stated)	17.7 µM (inactive)	14.4 µM (inactive)	19.3 µM (inactive)	15.5 µM (inactive)	–	14.6 µM (inactive)	9.79 µM (inactive)	15.1 µM (inactive)	14.6 µM (inactive)	25.8 µM (inactive)	17.5 µM (inactive)	14 µM (inactive)	11.6 µM (inactive)	14.5 µM (inactive)	11.3 µM (inactive)	12.1 µM (inactive)
O=C(Nc1cc(Cl)c(Cl)cc1Cl)C(=O)C(C(=O)c1ccccc1)C1OC(=O)c2ccccc21 (configuration not stated)	> 100 µM (inactive)	> 100 µM (inactive)	17.9 µM (inactive)	> 100 µM (inactive)	> 100 µM (inactive)	> 100 µM (inactive)	> 100 µM (inactive)	> 100 µM (inactive)	> 100 µM (inactive)	> 100 µM (inactive)	–	> 100 µM (inactive)	> 100 µM (inactive)	> 100 µM (inactive)	> 100 µM (inactive)	> 100 µM (inactive)
